Tests used:
[1] = tested on: L. infantum promastigote forms; experiment: Promastigote forms assay; assay type: cell-based, Leishmania infantum; settings: for SI Promastigote forms: IC50 macrophages/IC50 parasite form; for IC50: Leishmania infantum, 72 h; for times SI exceeds the reference drug SI (all forms): extracellular and intracellular forms; for times SI exceeds the reference drug SI (all forms) / number of times that compound SI exceeds the reference drug SI, Promastigote forms: reference Glucantime; for number of times that compound SI exceeds the reference drug SI, Promastigote forms: in brackets
Description: (§1) The compounds obtained were dissolved in the culture medium, at dosages of 100, 50, 25, 10, and 1 μM. The effects of each compound against promastigote forms were tested at 72 hours using a Neubauer haemocytometric chamber. The antileishmanial effect is expressed as the IC50, that is, the concentration required to give 50% inhibition, calculated by linear regression analysis from the Kc values of the concentrations employed.

[2] = tested on: L. braziliensis promastigote forms; experiment: Promastigote forms assay; assay type: cell-based, Leishmania braziliensis; settings: for SI Promastigote forms: IC50 macrophages/IC50 parasite form; for IC50: Leishmania braziliensis, 72 h; for number of times that compound SI exceeds the reference drug SI, Promastigote forms: in brackets, reference Glucantime
Description: as §1

[3] = tested on: L. infantum axenic amastigote forms; experiment: Axenic amastigote forms assay; assay type: cell-based, Leishmania infantum; settings: for SI Axenic amastigote forms: IC50 macrophages/IC50 parasite form; for IC50: Leishmania infantum, 48 hours per method (72 h); for number of times that compound SI exceeds the reference drug SI, Axenic amastigote forms: in brackets, reference Glucantime
Description: (§2) Axenic amastigotes forms of L. infantum and L. braziliensis were cultured following the methodology described previously by Moreno et al.. Thus, promastigote transformation to amastigotes was obtained after three days of culture in M199 medium (Invitrogen, Leiden, The Netherlands) supplemented with 10% heat-inactivated FCS, 1 g/L β-alanine, 100 mg/L L-asparagine, 200 mg/L sacarose, 50 mg/L sodium pyruvate, 320 mg/L malic acid, 40 mg/L fumaric acid, 70 mg/L succinic acid, 200 mg/L α-ketoglutaric acid, 300 mg/L citric acid, 1.1 g/L sodium bicarbonate, 5 g/L MES, 0.4 mg/L hemin, and 10 mg/L gentamicin pH 5.4 at 37°C. The effect of each compound against axenic amastigotes forms was tested at 48 hours using a Neubauer haemocytometric chamber. The antileishmanial effect is expressed as the IC50.

[4] = tested on: L. braziliensis axenic amastigote forms; experiment: Axenic amastigote forms assay; assay type: cell-based, Leishmania braziliensis; settings: for SI Axenic amastigote forms: IC50 macrophages/IC50 parasite form; for IC50: Leishmania braziliensis, 48 hours per method (72 h); for number of times that compound SI exceeds the reference drug SI, Axenic amastigote forms: in brackets, reference Glucantime
Description: as §2

[5] = tested on: L. infantum intracellular amastigote forms; experiment: Intracellular amastigote forms assay in J774.2 macrophages; assay type: cell-based, Leishmania infantum; settings: for SI Intracellular amastigote forms / number of times that compound SI exceeds the reference drug SI, Intracellular amastigote forms: L. infantum; for SI Intracellular amastigote forms: IC50 macrophages/IC50 parasite form; for number of times that compound SI exceeds the reference drug SI, Intracellular amastigote forms: in brackets, reference Glucantime; for IC50: Leishmania infantum, L. infantum in J774.2 macrophages, 72 h
Description: (§3) Cells were seeded at a density of 1 × 10^4 cells/well in 24-well microplates (Nunc) with rounded coverslips on the bottom and cultured for 2 days. Afterwards the cells were infected in vitro with promastigote forms of L. infantum and L. braziliensis, at a ratio of 10 : 1 during 24 hours. The non-phagocytosed parasites were removed by washing, and then the drugs (at 1, 10, 25, 50, 100 μM) were added. Macrophages with the drugs were incubated for 72 hours at 37°C in 5% CO2.
(§4) Drug activity was determined on the basis of number of amastigotes in treated and untreated cultures in methanol-fixed and Giemsa-stained preparations. The number of amastigotes was determined by analyzing 200 host cells distributed in randomly chosen microscopic fields. The antileishmanial effect is expressed as the IC50 values are the means of three separate determinations.

[6] = tested on: L. braziliensis intracellular amastigote forms; experiment: as above; assay type: cell-based, Leishmania braziliensis; settings: for SI Intracellular amastigote forms / number of times that compound SI exceeds the reference drug SI, Intracellular amastigote forms: L. braziliensis; for SI Intracellular amastigote forms: IC50 macrophages/IC50 parasite form; for number of times that compound SI exceeds the reference drug SI, Intracellular amastigote forms: in brackets, reference Glucantime; for IC50: Leishmania braziliensis, L. braziliensis in J774.2 macrophages, 72 h
Description: as §3, §4

[7] = tested on: J774.2 macrophages; experiment: Cytotoxicity test for macrophages (flow cytometry); assay type: cell-based, BALB/c rat; settings: Mus musculus, J774.2, 72 h, J774.2 macrophages after 72 h of culture; read-out: Macrophage toxicity IC50
Description: J774.2 macrophages (ECACC number 91051511) were originally obtained from a tumour in a female BALB/c […] in 1968. The cytotoxicity test for macrophages was performed according to the methodology of González et al.. After 72 hours of treatment, cell viability was determined by flow cytometry. Thus, 100 μL/well of propidium iodide solution ([…]) was added and incubated for 10 min at 28°C in darkness. Afterwards, 100 μL/well of fluorescein diacetate (100 ng/mL) was added and incubated under the same conditions. Finally, the cells were recovered by centrifugation at 400 g for 10 min and the precipitate washed with phosphate buffered saline (PBS). Flow cytometric analysis was performed with a FACSVantage flow cytometer (Becton Dickinson). The percentage viability was calculated in comparison with the control culture. The IC50 was calculated using linear regression analysis from the Kc values of the concentrations employed.

[8] = tested on: L. infantum; experiment: Infection assay in J774.2 macrophages; assay type: cell-based, Leishmania infantum; settings: IC25 concentration; for infection rate decrease, percentage of inhibition capacity: with respect to control
Description: (§5) J774.2 macrophage cells were grown under the same conditions expressed in amastigote forms assay during two days. Afterwards, the cells were infected in vitro with promastigote forms of L. infantum and L. braziliensis, at a ratio of 10 : 1. The drugs (IC25 concentrations) were added immediately after infection and were incubated for 12 hours at 37°C in 5% CO2. The nonphagocytosed parasites and the drugs were removed by washing, and then the infected cultures were grown for 10 days in fresh medium. Fresh culture medium was added every 48 h. The drug activity was determined from the percentage of infected cells and the number of amastigotes per infected cell (in treated and untreated cultures) in methanol-fixed and Giemsa-stained preparations. The percentage of infected cells and the mean number of amastigotes per infected cell were determined by analyzing 200 host cells distributed in randomly chosen microscopic fields. Values are the average of three separate determinations.

[9] = tested on: L. braziliensis; experiment: Infection assay in J774.2 macrophages; assay type: cell-based, Leishmania braziliensis; settings: IC25 concentration; for infection rate decrease, percentage of inhibition capacity: with respect to control
Description: as §5

[10] = tested on: L. infantum promastigotes; experiment: Metabolite excretion (1H-NMR); assay type: cell-based, Leishmania infantum; settings: IC25, 96 hours, vs control
Description: (§6) Cultures of L. infantum and L. braziliensis promastigotes (initial concentration 5 × 10^5 cells/mL) received IC25 concentrations of the compounds (except for control cultures). After incubation for 96 hours at 28°C, the cells were centrifuged at 400 g for 10 min. Then supernatants were collected to determine the excreted metabolites using ^1H-NMR, and, eventually, chemical displacements were expressed in parts per million (ppm), using sodium 2,2-dimethyl-2-silapentane-5-sulphonate as the reference signal. The chemical displacements used to identify the respective metabolites were consistent with those described by Fernández-Becerra et al.

[11] = tested on: L. braziliensis promastigotes; experiment: Metabolite excretion (1H-NMR); assay type: cell-based, Leishmania braziliensis; settings: IC25, 96 hours, vs control
Description: as §6

[12] = tested on: L. infantum promastigotes; experiment: Ultrastructural alterations (TEM); assay type: cell-based, Leishmania infantum; settings: IC25, 96 hours
Description: (§7) The parasites were cultured at a density of 5 × 10^5 cells/mL in MTL medium, and the cultures contained drugs at the IC25 concentration.
(§8) After 96 hours, those cultures were centrifuged at 400 g for 10 min, and the pellets produced were washed in PBS and then mixed with 2% (v/v) P-formaldehyde-glutaraldehyde in 0.05 M cacodylate buffer (pH 7.4) for 4 hours at 4°C. After that, the pellets were prepared for TEM employing the technique of González et al..

[13] = tested on: L. braziliensis promastigotes; experiment: Ultrastructural alterations (TEM); assay type: cell-based, Leishmania braziliensis; settings: IC25, 96 hours
Description: as §7, §8

Structure (SMILES) | SI Promastigote forms [1] | times SI exceeds the reference drug SI (all forms) [1] | number of times that compound SI exceeds the reference drug SI, Promastigote forms [1] | SI Promastigote forms [2] | IC50 [2] | number of times that compound SI exceeds the reference drug SI, Promastigote forms [2] | SI Axenic amastigote forms [3] | IC50 [3] | number of times that compound SI exceeds the reference drug SI, Axenic amastigote forms [3] | SI Axenic amastigote forms [4] | IC50 [4] | number of times that compound SI exceeds the reference drug SI, Axenic amastigote forms [4] | SI Intracellular amastigote forms [5] | number of times that compound SI exceeds the reference drug SI, Intracellular amastigote forms [5] | SI Intracellular amastigote forms [6] | number of times that compound SI exceeds the reference drug SI, Intracellular amastigote forms [6] | IC50 [6] | IC50 [7] | decrease of average number of amastigotes per infected macrophage cell [8] | infection rate decrease, percentage of inhibition capacity [8] | further results
CC(=O)OC[C@H]1O[C@@H](Oc2cc(OC(C)=O)c3c(=O)c(O[C@@H]4O[C@H](COC(C)=O)[C@@H](OC(C)=O)[C@H](OC(C)=O)[C@H]4OC(C)=O)c(-c4ccc(OC(C)=O)cc4)oc3c2)[C@H](OC(C)=O)[C@@H](OC(C)=O)[C@@H]1OC(C)=O [Compound 6] | >43.3 | more than 50 times | 54 | >31.9 | 31.3 ± 3 µM | 53 | >32.8 | 30.5 ± 2.3 µM | 55 | >35.7 | 28 ± 1.6 µM | 71 | 24.8 | 50 | >32.9 | 66 | 30.4 ± 2.7 µM | > 1000 µM | 24% | 71% | IC50 [1]: 23.1 ± 4.6 µM; decrease of average number of amastigotes per infected macrophage cell [9]: 69%; infection rate decrease, percentage of inhibition capacity [9]: 82%; change in excreted catabolites [10]: an increase in the excretion of succinate, and acetate, followed by malate, alanine, lactate and ethanol; change in excreted catabolites [11]: decreases in the excretion of acetate; ultrastructural alterations by TEM [12]: induced empty vacuoles, lipid vacuoles, and a large number of electrodense vesicles
C[C@H]1O[C@H](Oc2cc(O)c3c(=O)c(O[C@@H]4O[C@H](CO)[C@@H](O)[C@H](O)[C@H]4O)c(-c4ccc(O)c(O)c4)oc3c2)[C@@H](O)[C@@H](O)[C@@H]1O [Compound 7, petiolaroside] | >40.8 | more than 50 times | 51 | >47.4 | 21.1 ± 1.7 µM | 79 | >51.5 | 19.4 ± 1.4 µM | 86 | >51.3 | 19.5 ± 0.8 µM | 103 | >36.0 | 72 | >29.5 | 59 | 33.9 ± 3.5 µM | > 1000 µM | 49% | 77% | IC50 [1]: 24.5 ± 1.1 µM; IC50 [5]: 27.8 ± 1.4 µM; decrease of average number of amastigotes per infected macrophage cell [9]: 55%; infection rate decrease, percentage of inhibition capacity [9]: 69%; change in excreted catabolites [10]: an increase in the production of malate, succinate, ethanol, and lactate, but a decrease of excreted acetate and alanine levels; change in excreted catabolites [11]: decreases in the excretion of acetate; ultrastructural alterations by TEM [12]: no induction of substantial alterations; ultrastructural alterations by TEM [13]: All these changes occurred
CC(=O)O[C@H]1[C@H](Oc2c(-c3ccc(O)c(O)c3)oc3cc(O[C@@H]4O[C@@H](C)[C@H](O)[C@@H](O)[C@H]4O)cc(O)c3c2=O)O[C@H](CO)[C@@H](O)[C@@H]1O [Compound 8, 2′′-acetylpetiolaroside] | 52.4 | more than 50 times | 66 | >34.5 | 29 ± 1.5 µM | 58 | >54.3 | 18.4 ± 1.3 µM | 91 | >39.2 | 25.5 ± 0.7 µM | 78 | >31.2 | 62 | >49.8 | 100 | 20.1 ± 1.7 µM | > 1000 µM | 78% | 95% | IC50 [5]: 32.1 ± 2 µM; decrease of average number of amastigotes per infected macrophage cell [9]: 82%; infection rate decrease, percentage of inhibition capacity [9]: 88%; change in excreted catabolites [10]: an increase in the excretion of succinate, and acetate, followed by malate, alanine, lactate and ethanol; change in excreted catabolites [11]: decreases in the excretion of acetate; ultrastructural alterations by TEM [12]: many of the parasites adopted distorted shapes with distorted cytoplasm; ultrastructural alterations by TEM [13]: induced changes in the shape of parasites, with them showing completely altered forms
